From PubChem BioAssay AID1963971 (Molecular Pharmacology Branch, DTP, NCI, 2024)

Tested on: 953936-095-R-J2-PDC spheroids with HUVEC/MSC, viability
Assay: Anticancer human tumor 953936-095-R-J2-PDC patient-derived cervical squamous cell carcinoma cell line growth inhibition [PI3K]
Details: for IC50: curve of first compound; for viability, T/C: stronger effect = lower value
Outline: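 Agents were dosed from a top concentration near clinical Cmax (otherwise 10 microM) in half-log decrements, alone or combined with PI3K inhibitors. The spheroids contain tumor cells plus endothelial (HUVEC) and MSC stroma; viability is measured.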

[1] = second compound 0.0316 µM, first compound 0.0316 µM
[2] = second compound 0.0316 µM, first compound 0.1 µM
[3] = second compound 0.0316 µM, first compound 0.316 µM
[4] = second compound 0.0316 µM, first compound 1 µM
[5] = second compound 0.0316 µM, first compound 3.16 µM
[6] = second compound 0.0316 µM, first compound 10 µM
[7] = second compound 0.1 µM, first compound 0.0316 µM
[8] = second compound 0.1 µM, first compound 0.1 µM
[9] = second compound 0.1 µM, first compound 0.316 µM
[10] = second compound 0.1 µM, first compound 1 µM
[11] = second compound 0.1 µM, first compound 3.16 µM
[12] = second compound 0.1 µM, first compound 10 µM
[13] = second compound 0.316 µM, first compound 0.0316 µM
[14] = second compound 0.316 µM, first compound 0.1 µM
[15] = second compound 0.316 µM, first compound 0.316 µM
[16] = second compound 0.316 µM, first compound 1 µM
[17] = second compound 0.316 µM, first compound 3.16 µM
[18] = second compound 0.316 µM, first compound 10 µM
[19] = second compound 1 µM, first compound 0.0316 µM
[20] = second compound 1 µM, first compound 0.1 µM
[21] = second compound 1 µM, first compound 0.316 µM
[22] = second compound 1 µM, first compound 1 µM
[23] = second compound 1 µM, first compound 3.16 µM
[24] = second compound 1 µM, first compound 10 µM
[25] = second compound 3.16 µM, first compound 0.0316 µM
[26] = second compound 3.16 µM, first compound 0.1 µM
[27] = second compound 3.16 µM, first compound 0.316 µM
[28] = second compound 3.16 µM, first compound 1 µM
[29] = second compound 3.16 µM, first compound 3.16 µM
[30] = second compound 3.16 µM, first compound 10 µM
[31] = second compound 10 µM, first compound 0.0316 µM
[32] = second compound 10 µM, first compound 0.1 µM
[33] = second compound 10 µM, first compound 0.316 µM
[34] = second compound 10 µM, first compound 1 µM
[35] = second compound 10 µM, first compound 3.16 µM
[36] = second compound 10 µM, first compound 10 µM
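Also: spheroids exposed to compounds for seven days before read-out.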

Question: How did the IC50 (second compound 0.0316 µM) turn out when `Cn1ncc(Cl)c1-c1cc(C(=O)NC(CN)Cc2cccc(F)c2)sc1Cl` (stereo unspecified) + CC(Nc1ncnc2nc[nH]c12)c1cc2cccc(Cl)c2c(=O)n1-c1ccccc1 was run?
Answer: 630 nM

Question: What about the IC50 (second compound 0.1 µM) of the same molecule?
Answer: 617 nM

Question: And the IC50 (second compound 0.316 µM)?
Answer: 547 nM

Question: What about the IC50 (second compound 1 µM) of the same molecule?
Answer: 490 nM

Question: What about the IC50 (second compound 3.16 µM) of the same molecule?
Answer: 467 nM

Question: And the IC50 (second compound 10 µM)?
Answer: 146 nM

Question: And the viability, T/C [1]?
Answer: 96.5%

Question: What about the viability, T/C [2] of the same molecule?
Answer: 90.2%

Question: And the viability, T/C [3]?
Answer: 67.9%

Question: And the viability, T/C [4]?
Answer: 36.9%

Question: And the viability, T/C [5]?
Answer: 21.8%

Question: What about the viability, T/C [6] of the same molecule?
Answer: 12%

Question: What about the viability, T/C [7] of the same molecule?
Answer: 95.2%

Question: What about the viability, T/C [8] of the same molecule?
Answer: 90%

Question: And the viability, T/C [9]?
Answer: 67%

Question: And the viability, T/C [10]?
Answer: 37.5%

Question: What about the viability, T/C [11] of the same molecule?
Answer: 20%

Question: And the viability, T/C [12]?
Answer: 14.9%

Question: What about the viability, T/C [13] of the same molecule?
Answer: 94.1%

Question: What about the viability, T/C [14] of the same molecule?
Answer: 81.6%

Question: And the viability, T/C [15]?
Answer: 58.4%

Question: And the viability, T/C [16]?
Answer: 40%

Question: What about the viability, T/C [17] of the same molecule?
Answer: 22.4%

Question: What about the viability, T/C [18] of the same molecule?
Answer: 12.6%

Question: And the viability, T/C [19]?
Answer: 95.5%

Question: What about the viability, T/C [20] of the same molecule?
Answer: 83.5%

Question: What about the viability, T/C [21] of the same molecule?
Answer: 58.1%

Question: And the viability, T/C [22]?
Answer: 36.3%

Question: What about the viability, T/C [23] of the same molecule?
Answer: 18.1%

Question: What about the viability, T/C [24] of the same molecule?
Answer: 13.5%

Question: What about the viability, T/C [25] of the same molecule?
Answer: 82.3%

Question: And the viability, T/C [26]?
Answer: 77.8%

Question: And the viability, T/C [27]?
Answer: 56.7%

Question: What about the viability, T/C [28] of the same molecule?
Answer: 34.4%

Question: And the viability, T/C [29]?
Answer: 18%

Question: And the viability, T/C [30]?
Answer: 8.95%

Question: What about the viability, T/C [31] of the same molecule?
Answer: 55.5%

Question: And the viability, T/C [32]?
Answer: 54.5%

Question: And the viability, T/C [33]?
Answer: 42.9%

Question: And the viability, T/C [34]?
Answer: 30.5%

Question: And the viability, T/C [35]?
Answer: 14.6%

Question: What about the viability, T/C [36] of the same molecule?
Answer: 5.78%

Question: Which results are given for `Cn1nccc1Nc1nccc(-c2ccn(C(CO)c3ccc(Cl)c(F)c3)c(=O)c2)n1` (stereo unspecified) + CC(Nc1ncnc2nc[nH]c12)c1cc2cccc(Cl)c2c(=O)n1-c1ccccc1?
Answer: IC50 (second compound 0.0316 µM): > 10000 nM; IC50 (second compound 0.1 µM): > 10000 nM; IC50 (second compound 0.316 µM): > 10000 nM; IC50 (second compound 1 µM): > 10000 nM; IC50 (second compound 3.16 µM): > 10000 nM; IC50 (second compound 10 µM): > 10000 nM; viability, T/C [1]: 90.7%; viability, T/C [2]: 100%; viability, T/C [3]: 92%; viability, T/C [4]: 102%; viability, T/C [5]: 88.3%; viability, T/C [6]: 80.1%; viability, T/C [7]: 94.3%; viability, T/C [8]: 90.6%; viability, T/C [9]: 91%; viability, T/C [10]: 90.8%; viability, T/C [11]: 88%; viability, T/C [12]: 66%; viability, T/C [13]: 98.2%; viability, T/C [14]: 97.2%; viability, T/C [15]: 91.6%; viability, T/C [16]: 83.8%; viability, T/C [17]: 75.6%; viability, T/C [18]: 73.6%; viability, T/C [19]: 102%; viability, T/C [20]: 76.9%; viability, T/C [21]: 95.9%; viability, T/C [22]: 86.1%; viability, T/C [23]: 81.4%; viability, T/C [24]: 82.4%; viability, T/C [25]: 74.6%; viability, T/C [26]: 69.9%; viability, T/C [27]: 70.7%; viability, T/C [28]: 76.4%; viability, T/C [29]: 68.8%; viability, T/C [30]: 77.3%; viability, T/C [31]: 53.7%; viability, T/C [32]: 52.3%; viability, T/C [33]: 57.4%; viability, T/C [34]: 51.6%; viability, T/C [35]: 51.1%; viability, T/C [36]: 56.9%

Question: `Cn1ncnc1[C@H]1c2n[nH]c(=O)c3cc(F)cc(c23)N[C@@H]1c1ccc(F)cc1` + CC(Nc1ncnc2nc[nH]c12)c1cc2cccc(Cl)c2c(=O)n1-c1ccccc1 was tested. Which IC50 (second compound 0.0316 µM) did it give?
Answer: > 100 nM

Question: And the IC50 (second compound 0.1 µM)?
Answer: > 100 nM

Question: What about the IC50 (second compound 0.316 µM) of the same molecule?
Answer: > 100 nM

Question: What about the IC50 (second compound 1 µM) of the same molecule?
Answer: > 100 nM

Question: And the IC50 (second compound 3.16 µM)?
Answer: > 100 nM

Question: What about the IC50 (second compound 10 µM) of the same molecule?
Answer: > 100 nM

Question: What about the viability, T/C (second compound 0.0316 µM, first compound 0.000316 µM) of the same molecule?
Answer: 110%

Question: And the viability, T/C (second compound 0.0316 µM, first compound 0.001 µM)?
Answer: 95.1%

Question: What about the viability, T/C (second compound 0.0316 µM, first compound 0.00316 µM) of the same molecule?
Answer: 104%

Question: And the viability, T/C (second compound 0.0316 µM, first compound 0.01 µM)?
Answer: 98.8%

Question: And the viability, T/C [1]?
Answer: 91.7%

Question: And the viability, T/C [2]?
Answer: 96.7%

Question: And the viability, T/C (second compound 0.1 µM, first compound 0.000316 µM)?
Answer: 100%

Question: What about the viability, T/C (second compound 0.1 µM, first compound 0.001 µM) of the same molecule?
Answer: 99.3%

Question: What about the viability, T/C (second compound 0.1 µM, first compound 0.00316 µM) of the same molecule?
Answer: 105%

Question: What about the viability, T/C (second compound 0.1 µM, first compound 0.01 µM) of the same molecule?
Answer: 99.7%

Question: And the viability, T/C [7]?
Answer: 101%

Question: And the viability, T/C [8]?
Answer: 90.1%

Question: And the viability, T/C (second compound 0.316 µM, first compound 0.000316 µM)?
Answer: 99.5%

Question: What about the viability, T/C (second compound 0.316 µM, first compound 0.001 µM) of the same molecule?
Answer: 96.8%

Question: What about the viability, T/C (second compound 0.316 µM, first compound 0.00316 µM) of the same molecule?
Answer: 110%

Question: And the viability, T/C (second compound 0.316 µM, first compound 0.01 µM)?
Answer: 92.9%

Question: What about the viability, T/C [13] of the same molecule?
Answer: 101%

Question: What about the viability, T/C [14] of the same molecule?
Answer: 91.9%

Question: And the viability, T/C (second compound 1 µM, first compound 0.000316 µM)?
Answer: 104%

Question: What about the viability, T/C (second compound 1 µM, first compound 0.001 µM) of the same molecule?
Answer: 90.7%

Question: And the viability, T/C (second compound 1 µM, first compound 0.00316 µM)?
Answer: 90.2%

Question: And the viability, T/C (second compound 1 µM, first compound 0.01 µM)?
Answer: 84%

Question: And the viability, T/C [19]?
Answer: 101%

Question: And the viability, T/C [20]?
Answer: 86.9%

Question: What about the viability, T/C (second compound 3.16 µM, first compound 0.000316 µM) of the same molecule?
Answer: 87.2%

Question: And the viability, T/C (second compound 3.16 µM, first compound 0.001 µM)?
Answer: 78.5%

Question: What about the viability, T/C (second compound 3.16 µM, first compound 0.00316 µM) of the same molecule?
Answer: 79.8%

Question: And the viability, T/C (second compound 3.16 µM, first compound 0.01 µM)?
Answer: 81.5%

Question: And the viability, T/C [25]?
Answer: 78%

Question: What about the viability, T/C [26] of the same molecule?
Answer: 81.3%

Question: What about the viability, T/C (second compound 10 µM, first compound 0.000316 µM) of the same molecule?
Answer: 56.8%

Question: And the viability, T/C (second compound 10 µM, first compound 0.001 µM)?
Answer: 57.8%

Question: And the viability, T/C (second compound 10 µM, first compound 0.00316 µM)?
Answer: 56.9%

Question: And the viability, T/C (second compound 10 µM, first compound 0.01 µM)?
Answer: 61.9%

Question: And the viability, T/C [31]?
Answer: 58.7%

Question: What about the viability, T/C [32] of the same molecule?
Answer: 58.9%
